Measured values published in patent publication US20080318938A1, “METHODS FOR TREATING ABERRANT CELL PROLIFERATION DISORDERS” (priority 2007, published 2008).
pEC50, pIC50: −log10 of the molar value. Like-named read-outs stand apart in the source and are kept apart here.

What was measured:
CCK1/CCKA = molecular target: T1, CCK1/CCKA (Homo sapiens, UniProt P32238); experiment: Receptor functional assay; format: biochemical
T1 sequence (P32238 1-428): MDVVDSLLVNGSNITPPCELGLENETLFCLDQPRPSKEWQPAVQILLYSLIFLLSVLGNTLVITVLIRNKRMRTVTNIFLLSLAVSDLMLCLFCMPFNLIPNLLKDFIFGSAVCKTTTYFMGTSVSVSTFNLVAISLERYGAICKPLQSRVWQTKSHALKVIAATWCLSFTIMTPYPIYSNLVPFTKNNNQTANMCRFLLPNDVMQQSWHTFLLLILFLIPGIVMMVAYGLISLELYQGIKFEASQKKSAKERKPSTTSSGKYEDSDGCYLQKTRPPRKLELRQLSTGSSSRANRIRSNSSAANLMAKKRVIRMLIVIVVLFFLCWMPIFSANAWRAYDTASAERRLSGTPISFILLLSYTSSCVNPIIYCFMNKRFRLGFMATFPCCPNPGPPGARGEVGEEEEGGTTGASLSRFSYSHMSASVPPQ
Experimental: (§1) The binding IC50, functional effect, and functional EC50 of TA1-1B on exemplary receptors was determined.

SST5 [1] = molecular target: T2, SST5 (Homo sapiens, UniProt P35346); experiment: Receptor functional assay; format: biochemical
Experimental: as §1

SST4 [2] = molecular target: T3, SST4 (Homo sapiens, UniProt P31391); experiment: Receptor functional assay; format: biochemical
Experimental: as §1

SST1 [3] = molecular target: T4, SST1 (Homo sapiens, UniProt P30872); experiment: Receptor functional assay; format: biochemical
Experimental: as §1

CCK2/CCKB = molecular target: T5, CCK2/CCKB (Homo sapiens, UniProt P32239); experiment: Receptor functional assay; format: biochemical
T5 sequence (P32239 1-447): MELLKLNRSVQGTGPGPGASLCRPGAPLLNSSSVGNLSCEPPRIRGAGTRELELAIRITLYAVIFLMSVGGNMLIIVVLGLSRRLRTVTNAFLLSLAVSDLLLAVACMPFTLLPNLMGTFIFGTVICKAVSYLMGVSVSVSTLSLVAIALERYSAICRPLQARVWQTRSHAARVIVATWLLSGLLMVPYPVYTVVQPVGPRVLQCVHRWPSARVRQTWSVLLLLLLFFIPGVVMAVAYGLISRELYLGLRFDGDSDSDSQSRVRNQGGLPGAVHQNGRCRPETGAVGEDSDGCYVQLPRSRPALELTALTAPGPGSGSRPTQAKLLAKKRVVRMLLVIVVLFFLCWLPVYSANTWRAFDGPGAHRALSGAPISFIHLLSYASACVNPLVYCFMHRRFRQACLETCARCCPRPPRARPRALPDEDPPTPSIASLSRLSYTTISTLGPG
Experimental: as §1

Adenosine A2A receptors = Adenosine A2A receptors (Homo sapiens, UniProt P29274); experiment: Receptor binding
M4 Muscarinic receptor = M4 Muscarinic receptor (Homo sapiens, UniProt P08173); experiment: Receptor binding
[4] = TA1-1B in plasma, brain and tumor of HCT116 tumor-bearing mice; format: in vivo; details: 25.0 mg/kg single IV dose; for concentration at 15 min / concentration at 2 h: female, NCr nu/nu, mouse; for concentration at 15 min: 15 min post-dose; for concentration at 2 h: two hour post-dose
From the text: In vivo experiment protocols were approved by the Animal Use and Care Committee. Female NCr nu/nu mice were purchased from Taconic Farms and group housed in a ventilated rack system on a 12/12 light cycle. All housing materials and water were autoclaved prior to use. The mice were fed ad libitum with gamma-irradiated laboratory chow and acidified water. Animals were handled under laminar-flow hoods. Animals were inoculated subcutaneously in the right flank with 5×10̂6 HCT116 cells. Tumors were monitored twice weekly and then daily as they approached the appropriate size for study. On Day 1 of the study, the animals were randomized into n=3 treatment groups with group average tumor sizes of 109 mm^3.
where w=width and 1=length in mm of the tumor. Tumor weight was estimated with the assumption that 1 mg is equivalent to 1 mm^3 of tumor volume. Mice were dosed with compound TA1-1B at 25.0 mg/kg (single IV dose). At fifteen min and two hour time points, plasma, brain and tumor samples were collected from terminal mice and frozen. It was determined that the tumor contained 0.86 μM, plasma contained 0.74 μM and brain contained 1.47 μM of the therapeutic agent after 15 min post-dose, and the tumor contained 1.6 μM, plasma contained 0.41 μM and brain contained 0.8 μM of the therapeutic agent after the two hour post-dose.

SST5 [5] = molecular target: T2, SST5; experiment: Receptor binding
Experimental: as §1

SST4 [6] = molecular target: T3, SST4; experiment: Receptor binding
Experimental: as §1

SST1 [7] = molecular target: T4, SST1; experiment: Receptor binding
Experimental: as §1

[8] = Tissue distribution in rats (in vivo pharmacokinetic study); parameters: species or system Sprague Dawley rats
Experimental: Five groups (three animals per group) of male Sprague Dawley rats were assigned for in vivo pharmacokinetic study. • Group-1 animals were dosed intravenously with compound TA1-1B at 7.5 mg/kg and after 2 hr post-dose animals were terminated and whole blood, plasma, brain, bone marrow and adrenal gland collected. • Group-2 animals were dosed intravenously with compound TA1-1B at 7.5 mg/kg for five consecutive days. After 2 hr of the last dose (98 hr) animals were terminated and whole blood, plasma, brain, bone marrow and adrenal gland collected. • Group-3 animals were dosed intravenously with compound TA1-1B at 7.5 mg/kg for five consecutive days. After 26 hr of the last dose (122 hr) animals were terminated and whole blood, plasma, brain, bone marrow and adrenal gland collected. • Group-4 animals were dosed intravenously with compound TA1-1B at 7.5 mg/kg for five consecutive days. After 50 hr of the last dose (146 hr) animals were terminated and whole blood, plasma, brain, bone marrow and adrenal gland collected. • Group-5 animals were dosed intravenously with vehicle, terminated and whole blood, plasma, brain, bone marrow and adrenal gland collected. Tissues obtained from this group of animals were used for corresponding matrix preparation in subsequent bioanalysis.
After administration the compound TA1-1B quickly reaches those tissues (after 2 hr) and subsequently gets cleared.

[9] = tested on: 5-HT1B 5-hydroxytryptamine (serotonin) receptor 1B; experiment: Receptor binding
[10] = brain, read-out: Concentration in brain
[11] = plasma, read-out: Concentration in plasma
[12] = tumor, read-out: Concentration in tumor
[13] = 7.5 mg/kg intravenously (FIG. 3)
[14] = 7.5 mg/kg intravenously, time point not stated, unit from FIG. 2 legend

T4 sequence (P30872 whole entry, species assumed): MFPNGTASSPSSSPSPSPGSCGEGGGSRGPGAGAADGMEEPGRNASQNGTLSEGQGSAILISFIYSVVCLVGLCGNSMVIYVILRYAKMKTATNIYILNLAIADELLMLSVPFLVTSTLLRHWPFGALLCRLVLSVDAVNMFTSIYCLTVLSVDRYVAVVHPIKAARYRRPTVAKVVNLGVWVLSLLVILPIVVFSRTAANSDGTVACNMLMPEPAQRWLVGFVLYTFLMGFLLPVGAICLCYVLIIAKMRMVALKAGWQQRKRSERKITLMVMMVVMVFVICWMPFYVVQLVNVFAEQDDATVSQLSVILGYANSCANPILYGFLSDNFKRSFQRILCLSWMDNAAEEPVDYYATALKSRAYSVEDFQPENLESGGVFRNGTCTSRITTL
T2 sequence (P35346 whole entry, species assumed): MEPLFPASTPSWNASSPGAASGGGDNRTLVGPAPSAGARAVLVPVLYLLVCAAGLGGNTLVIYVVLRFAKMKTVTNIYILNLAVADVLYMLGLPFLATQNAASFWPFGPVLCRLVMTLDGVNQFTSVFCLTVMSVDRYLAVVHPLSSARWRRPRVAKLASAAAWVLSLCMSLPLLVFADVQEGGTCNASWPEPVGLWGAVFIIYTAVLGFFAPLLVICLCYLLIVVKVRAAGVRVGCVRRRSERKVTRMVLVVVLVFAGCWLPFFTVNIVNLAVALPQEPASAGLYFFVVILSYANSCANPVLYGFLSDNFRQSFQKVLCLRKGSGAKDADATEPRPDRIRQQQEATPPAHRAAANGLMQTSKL
T3 sequence (P31391 whole entry, species assumed): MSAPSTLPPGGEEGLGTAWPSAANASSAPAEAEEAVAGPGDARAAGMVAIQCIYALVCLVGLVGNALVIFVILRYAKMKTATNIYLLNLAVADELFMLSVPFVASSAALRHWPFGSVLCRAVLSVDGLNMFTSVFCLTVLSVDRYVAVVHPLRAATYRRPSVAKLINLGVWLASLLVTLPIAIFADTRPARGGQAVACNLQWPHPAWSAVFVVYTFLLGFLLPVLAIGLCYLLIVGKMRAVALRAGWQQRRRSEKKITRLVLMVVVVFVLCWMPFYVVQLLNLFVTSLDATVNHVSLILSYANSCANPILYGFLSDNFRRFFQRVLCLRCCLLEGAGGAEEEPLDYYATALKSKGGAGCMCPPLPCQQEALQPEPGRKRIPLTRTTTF
Adenosine A2A receptors, sequence (P29274 whole entry): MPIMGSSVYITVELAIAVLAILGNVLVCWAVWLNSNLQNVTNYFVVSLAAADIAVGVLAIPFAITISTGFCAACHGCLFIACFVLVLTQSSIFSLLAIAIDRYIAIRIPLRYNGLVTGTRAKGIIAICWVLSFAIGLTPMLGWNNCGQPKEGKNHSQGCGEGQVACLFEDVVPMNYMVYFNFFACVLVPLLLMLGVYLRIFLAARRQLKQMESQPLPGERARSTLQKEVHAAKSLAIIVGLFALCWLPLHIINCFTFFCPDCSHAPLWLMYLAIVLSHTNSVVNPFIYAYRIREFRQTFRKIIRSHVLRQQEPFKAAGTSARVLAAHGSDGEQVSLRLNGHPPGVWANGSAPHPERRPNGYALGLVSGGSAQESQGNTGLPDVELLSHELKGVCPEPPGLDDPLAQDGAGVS
M4 Muscarinic receptor, sequence (P08173 whole entry): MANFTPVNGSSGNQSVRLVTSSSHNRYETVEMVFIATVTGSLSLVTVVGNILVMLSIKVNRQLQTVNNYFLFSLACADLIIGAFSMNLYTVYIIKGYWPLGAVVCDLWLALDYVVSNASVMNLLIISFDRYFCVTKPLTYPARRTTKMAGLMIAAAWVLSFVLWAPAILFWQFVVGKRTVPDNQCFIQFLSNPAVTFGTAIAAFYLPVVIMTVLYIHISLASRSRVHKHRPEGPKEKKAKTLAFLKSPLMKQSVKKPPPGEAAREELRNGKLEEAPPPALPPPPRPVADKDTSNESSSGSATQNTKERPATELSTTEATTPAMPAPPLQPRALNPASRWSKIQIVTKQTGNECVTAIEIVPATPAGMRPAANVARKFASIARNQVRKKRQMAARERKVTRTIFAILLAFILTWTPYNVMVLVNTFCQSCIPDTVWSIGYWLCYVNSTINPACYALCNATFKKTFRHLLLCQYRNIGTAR

Structure (SMILES): CN1CCC[C@H]1CCNC(=O)c1cn2c3c(c(N4CCC(c5cnccn5)C4)c(F)cc3c1=O)Oc1cc3ccccc3cc1-2 (stereo partly shown) [TA1-1B]
- pEC50 (CCK1/CCKA; antagonist): 5.80
- Kb (CCK1/CCKA; antagonist): 0.34 µM
- Functional Effect (CCK1/CCKA; response noted at 1 μM): Antagonist
- pEC50 (SST5 [1]; agonist): 5.33
- Functional Effect (SST5 [1]; response noted at 10 μM): Agonist
- pEC50 (SST4 [2]; agonist): 5.00
- Functional Effect (SST4 [2]; response noted at 10 μM): Agonist
- pEC50 (SST1 [3]; agonist): 5.37
- Functional Effect (SST1 [3]; response noted at 10 μM): Agonist
- pEC50 (CCK2/CCKB; antagonist): 5.05
- Kb (CCK2/CCKB; antagonist): 0.4 µM
- Functional Effect (CCK2/CCKB; response noted at 10 μM): Antagonist
- inhibition at 1 µM (Adenosine A2A receptors): 60%
- inhibition at 1 µM (M4 Muscarinic receptor): 87%
- Blood-brain barrier permeation ([4]; heading of Example 3): Permeates the Blood-Brain Barrier
- concentration at 15 min [4, 10]: 1470 nM
- concentration at 2 h [4, 10]: 800 nM
- concentration at 15 min [4, 11]: 740 nM
- concentration at 2 h [4, 11]: 410 nM
- concentration at 15 min [4, 12]: 860 nM
- concentration at 2 h [4, 12]: 1600 nM
- pIC50 (SST5 [5]): < 5.00
- pIC50 (SST4 [6]): < 5.00
- pIC50 (SST1 [7]): 5.55
- Exposure in adrenal glands and bone marrow relative to other tissues [8, 13]: highest exposures
- Retention in adrenal glands and bone marrow versus brain [8, 13]: retains longer
- Elimination from rat brain tissue ([8]; 7.5 mg/kg intravenously QDx5, over 48 hr post-dose (FIG. 2)): almost completely eliminates
- Concentration in brain tissue [8, 14]: 1600 nM
- Concentration in plasma [8, 14]: 200 nM
- Concentration in whole blood [8, 14]: 500 nM
- % inhibition @ 1 uM [9]: 49%
